The values below come from patent US20030162825A1, “D-amino acid oxidase inhibitors for learning and memory” (SEPRACOR INC., priority 2001, published 2003).

The target in assay [1] is T1, Porcine kidney D-amino acid oxidase (Sus scrofa, UniProt P00371).
T1 construct: purchased Sigma Company A-5222; host or cells: porcine kidney
The assay can be described thus: D-amino acid oxidase inhibition assay (Amplex Red Hydrogen Peroxide Assay Kit). The format is biochemical. The note with it: D-serine substrate, reaction time five minutes; for inhibition at 40 µg/mL: inhibitor at 40 μg/mL. The protocol: A working solution was prepared by mixing: sodium phosphate buffer (8.7 ml, 0.025M, pH 7.4), D-serine solution (1.0 ml, 100 mM in water), horseradish peroxidase (0.2 ml, 200 U/ml in buffer), and Amplex™ Red solution (0.1 ml, 1 mg dye in 200 μl in DMSO (50 μM in DMSO)). A working enzyme solution was prepared by diluting a D-amino oxidase stock solution (65 U/ml) one hundred fold. The working solution (100 μl) was transferred to wells of a Microfluor B microtiter plate and a solution of the inhibitor in DMF was added.
Control experiments were carried out using DMF in the absence of inhibitor.

The subject of the next assay is rats. The assay can be described thus: Morris water maze test (learning and memory). Type of assay: in vivo, rat. How it is done: Training was conducted in a circular pool (160 cm in diameter) filled with water to a depth of 35 cm. The walls of the pool were blue, and the water was made opaque by the addition of approximately 20 ml of white, non-toxic water-based food dye. Water temperature was maintained at approximately 25° C.
During training, rats learn to swim to a submerged platform (approximately 2.5 cm below the surface) constructed of Nalgene with a roughened Plexiglas surface. The surface diameter was approximately 16 cm and its height was approximately 27.5 cm. Experiments were conducted in a darkened room. Lighting of the water-maze was arranged so that illumination of the pool was dim and equivalent in all quadrants. Both acquisition data and retention probe data were collected using Videomex Morris maze software and interface (Columbus Instruments, Columbus, Ohio). The apparatus monitored the animal's progress using a video camera connected to a monitor and a video analysis computer that was outside the view of the swimming animal. Latencies to escape to the platform, the animal's swimming route, and its time spent in the platform-containing quadrant were measured.
Morris maze acquisition training (learning) consisted of 18 trials presented in 6 blocks of 3 trials each. During all training and testing procedures, the experimenter was blind to the animal group membership. To orient the animals to the task, training began with placement of the animal's front paws onto the platform followed by 10 sec of the animal's standing on the platform. Immediately after the third placement, training commenced with the first block of 3 trials. The platform was placed in the center of the southwest quadrant for all training. On each trial, rats were placed into the pool randomly at one of 6 different angular directions. […] Latency to escape to the platform was measured for each trial. […]
[…] The amount of time spent in the quadrant previously occupied by the platform and number of crosses over the previous position of the platform were recorded for each animal. […]

Entries after “also recorded” stand apart in the source; their conditions may differ.

T1 sequence (P00371 whole entry): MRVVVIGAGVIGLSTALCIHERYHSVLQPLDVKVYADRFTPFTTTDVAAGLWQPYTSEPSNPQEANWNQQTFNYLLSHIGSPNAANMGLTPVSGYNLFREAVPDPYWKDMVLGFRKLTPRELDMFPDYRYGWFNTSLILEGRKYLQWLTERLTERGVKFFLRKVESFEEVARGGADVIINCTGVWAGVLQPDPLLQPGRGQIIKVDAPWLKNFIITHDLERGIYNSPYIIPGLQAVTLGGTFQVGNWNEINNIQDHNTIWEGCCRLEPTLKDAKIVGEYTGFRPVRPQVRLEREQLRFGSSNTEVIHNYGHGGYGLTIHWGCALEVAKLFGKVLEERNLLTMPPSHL

The inhibition is the change of the read-out against control, counted positive when it falls. The molecule `O=C(O)c1cc2ccccc2o1` [compound 5] had an inhibition at 40 µg/mL in assay [1] of 85%.

Regarding `O=C(O)c1ccc[nH]1` [compound 3], testing at 40 µg/mL in assay [1] gave an inhibition of 87%.

In the case of `Cn1c(C(=O)O)cc2ccccc21` [compound 6], the inhibition at 40 µg/mL in assay [1] worked out at 58%.

`COc1ccc2[nH]c(C(=O)O)cc2c1` [compound 7] returned an inhibition at 40 µg/mL in assay [1] of 32%.

A word on the IC50: it is the concentration that gives 50% inhibition. A low value points to greater potency. For `O=C(O)c1cc2ccccc2[nH]1` [compound 1], in assay [1], the half-maximal inhibitory concentration (IC50) came out at 2 µM and testing at 40 µg/mL gave an inhibition of 93%.

`O=C(O)c1ccc([N+](=O)[O-])c2c1NC(c1ccc([N+](=O)[O-])cc1)C1CC=CC21` (stereo not shown) [compound 11] gave an IC50 in assay [1] of 29 µM.

Regarding `O=C(O)c1cc2ccccc2[nH]1` [I-2-C, indole-2-carboxylic acid], the “retention (seconds swimming in the quadrant previously containing the escape platform)” value in the assay with rats (first experiment: 200 mg/kg ip four times, one hour before first, second, fourth and sixth training period, four days after training) is “improved retention”. In addition, in the assay on rats (second experiment: single injection 200 mg/kg, eight days later, 200 mg/kg), the retention in seconds result is recorded as “improving effect on retention; also recorded: improved retention”. Also, in the assay on rats (third experiment: single injection 200 mg/kg, first probe trial), the retention entry is listed as “improved retention”.

For the molecule `O=C(O)c1cc2cc(Cl)ccc2[nH]1` [compound 4], in assay [1], the inhibition at 40 µg/mL amounted to 86%.

The molecule `O=C(O)c1cc2cc(O)ccc2[nH]1` [compound 2] registered an inhibition at 40 µg/mL in assay [1] of 90%.

Turning to `O=C(O)c1ccc([N+](=O)[O-])c2c1NC(c1ccccc1)C1CC=CC21` (stereo not shown) [compound 10], half-maximal inhibition in assay [1] (IC50) was put at 17 µM.
